Results reported in patent US20230119002A1, “COMPOSITIONS AND METHODS CONTAINING REDUCED NICOTINAMIDE RIBOSIDE FOR PREVENTION AND TREATMENT OF CARDIOVASCULAR DISEASES AND CONDITIONS” (SOCIETE DES PRODUITS NESTLE S.A., priority 2020, published 2023).
Structures can show the parent of a compound that is named as a salt.

Assays:
NRK1 = assay: NAD+ levels in primary hepatocytes from control or NRK1 knockout mice; conditions: 1 hour of treatment, NRK1 knockout mouse hepatocytes
[1] = Stability in isolated mouse plasma; assay type: in vitro ADME
Text: (§1) Levels of NRH and other NAD-related metabolites in biological samples were obtained by using a cold liquid-liquid extraction using a mixture of methanol:water:chloroform in 5:3:5 (v/v), from which the polar phase was recovered for hydrophilic interaction ultra-high performance liquid chromatography mass spectrometry (UHPLC-MS) analysis. The UHPLC consisted of a binary pump, a cooled autosampler, and a column oven (DIONEX Ultimate 3000 UHPLC+ Focused, Thermo Scientific), connected to a triple quadrupole spectrometer (TSQ Vantage, Thermo Scientific) equipped with a heated electrospray ionisation (H-ESI) source. Of each sample, 2 μL were injected into the analytical column (2.1 mm×150 mm, 5 μm pore size, 200 Å HILICON iHILIC®-Fusion(P)), guarded by a pre-column (2.1 mm×20 mm, 200 Å HILICON iHILIC®-Fusion(P) Guard Kit) operating at 35° C. The mobile phase (10 mM ammonium acetate at pH 9, A, and acetonitrile, B) was pumped at 0.25 mL/min flow rate over a linear gradient of decreasing organic solvent (0.5-16 min, 90-25% B), followed by re-equilibration for a total run time of 30 min. The MS operated in positive mode at 3500 V with multiple reaction monitoring (MRM). The software Xcalibur v4.1.31.9 (Thermo Scientific) was used for instrument control, data acquisition and processing. Retention time and mass detection was confirmed by authentic standards.
(§2) NR degradation to NAM has been proposed as a limitation for its pharmacological efficacy. To evaluate whether NRH was also susceptible to degradation to NAM, we spiked NRH or NR in isolated mouse plasma. […] We also tested the stability of NRH in other matrixes. […] Finally, we also certified NRH stability in water (pH=7, at room temperature) for 48 h.

[2] = Stability in FBS supplemented media; assay type: in vitro ADME
Procedure: as §2

[3] = assay type: in vivo, mice
Procedure: 8 week-old C57BI/6NTac mice were orally gavaged with either saline (as vehicle), NR (500 mg/kg) or NRH (500 mg/kg). After 1 hour, liver, skeletal muscle and kidney NAD^+ levels were evaluated. All results are expressed as mean+/−SEM of n=5 mice per group. * indicates statistical difference at p<0.05 vs. vs. saline-treated mice. # indicates statistical difference at p<0.05 vs. NR treated mice.
as §1
Oral administration of NRH led to very similar results to those observed after IP administration. […] NRH was detectable in plasma 1 h after oral administration. In contrast, NR levels were undetectable at 1 h after NR administration.

[4] = Tissue NAD+ and circulating metabolites after IP injection in mice; assay type: in vivo; conditions: for NAD+ levels in liver, muscle and kidney: after 1 h
Text: as §1
The above results prompted us to test whether NRH could act as an effective NAD+ precursor in vivo. For this, we first intraperitoneally (IP) injected mice with either NR or NRH (500 mg/kg). […] Importantly, NRH was detectable in circulation after IP injection.

AML12 hepatocytes = assay: Intracellular NAD+ levels in AML12 hepatocytes after NRH or NR treatment; assay type: cell-based
Text: as §1
Even at such relatively low dose, NRH achieved similar increases in intracellular NAD+ levels to those reached with NR at 50-fold higher concentrations.
NRH actions were also extremely fast (FIG. 3), as significant increases in NAD+ levels were observed within 5 minutes after NRH treatment.

NMNAT = assay: NRH-induced NAD+ synthesis with NMNAT inhibitor gallotannin; assay type: cell-based
Text: As a follow-up step, NMNAT enzymes could catalyze the transition from NMNH to NADH. […] Yet, part of the NRH action remained after gallotannin treatment when NRH was used at maximal doses.

[5] = tested on: equilibrative nucleoside transporters (ENTs); assay: NRH-induced NAD+ synthesis with ENT-mediated transport blocked by NBTI; assay type: cell-based; conditions: in the presence of NBTI (ENT blocker)
Text: In order to understand the exact path by which NRH synthesizes NAD+, we initially evaluated whether NRH, could be transported into the cell by equilibrative nucleoside transporters (ENTs).

3T3 fibroblasts = assay: NAD+ levels in 3T3 fibroblasts after NRH treatment; assay type: cell-based
Procedure: (§3) The ability of NRH to potently increase NAD+ was tested as well in other cell type models.

NAMPT = biological target: T1, NAMPT (Mus musculus, UniProt Q99KQ4); assay: NRH-induced NAD+ synthesis with NAMPT inhibitor FK866; assay type: cell-based
T1 construct: endogenous in cells; AML12 inferred

zebrafish larvae = assay: Ethanol-induced cardiac edema in zebrafish larvae; assay type: in vivo; conditions: 2% Ethanol during 20 h, NRH 500 uM co-treatment, 3 days post fertilization
Procedure: Phenotypic scoring of cardiac edema severity in zebrafish larvae at 3 days post fertilization exposed to 2% Ethanol during 20 h with or without NRH (500 uM) co-treatment (untreated, n=60; Ethanol, n=73; Ethanol +NRH, n=72). Statistics represented were calculated by non-parametric Chi-square test without p-value adjustment. **** p-Value<0.0001, * p-Value=0.0275.
Phenotypic scoring of cardiac edema severity in zebrafish larvae at 3 days post fertilization exposed to 2% Ethanol during 20 h with or without NRH (500 uM) co-treatment (untreated, n=60; Ethanol, n=73; Ethanol+NRH, n=72). This indicates NRH protects against ethanol-induced cardiac edema in Zebrafish.

C2C12 myotubes = assay: NAD+ levels in C2C12 myotubes after NRH treatment; assay type: cell-based
Procedure: as §3

INS1-cells = assay: NAD+ levels in INS1-cells after NRH treatment; assay type: cell-based
Procedure: as §3

zebrafish embryos = assay: Doxorubicin-induced toxicity in zebrafish larvae; assay type: in vivo; conditions: Doxorubicin 25 uM with NRH 500 uM, up to 60 h
Procedure: 1 day post fertilization zebrafish embryos were placed in 24 well plates and treated with Doxorubicin (25 uM), either alone or in combination with NRH (500 uM). Untreated group was exposed to DMSO (0.05%). Health of the larvae was monitored frequently, and dead larvae were scored overtime, up to 60 h treatment. Results are expressed as percent of survival of n=60 embryos per group. Statistics represented were calculated by pairwise comparison using log-rank test and p-value adjustment was performed by Bonferroni correction. p-Value for median survival of untreated vs Doxorubicin <0.0001, p-value Doxorubicin vs Doxorubicin+NRH <0.0001.
Doxorubicin is a chemotherapeutic agent that is well established to be cardiotoxic. This drug has also been described to induce cardiomyopathy in zebrafish larvae. 1 day post fertilization zebrafish embryos were placed in 24 well plates and treated with Doxorubicin (25 uM), either alone or in combination with NRH (500 uM). Untreated group was exposed to DMSO (0.05%). Health of the larvae was monitored frequently, and dead larvae were scored overtime, up to 60 h treatment. Results are expressed as percent of survival of n=60 embryos per group.

adenosine kinase (AK) = biological target: T2, adenosine kinase (AK) (Mus musculus, UniProt P55264); assay: NRH-induced NAD+ synthesis with adenosine kinase inhibitors; assay type: cell-based
T2 construct: endogenous in cells; host or cells: AML12 cells
Procedure: AML12 cells were treated with an adenosine kinase inhibitor (5-IT; […]) for 1 hour prior to NRH treatment at the doses indicated. Then, 1 hour later, acidic extracts were obtained to measure NAD^+ levels. All values in the figure are expressed as mean+/−SEM of 3 independent experiments. * indicates statistical difference at p<0.05 vs. the respective vehicle treated group.
Considering the molecular structure of NRH, we reasoned that an alternative nucleoside kinase could be responsible for the phosphorylation of NRH. Confirming this expectation, the adenosine kinase (AK) inhibitor 5-iodotubercidin (5-IT) fully ablated the action of NRH. The role of AK in NRH-mediated NAD+ synthesis was confirmed using a second, structurally different, AK inhibitor, ABT-702. Metabolomic analyses further confirmed that upon inhibition of AK, the generation of NMNH, NADH and NAD+ was fully blunted, even if NRH was effectively entering the cell.

H9C2 cardiomyocytes = assay: Oxidative stress-induced cardiomyocyte cell death; assay type: cell-based; conditions: H2O2 0.25 mM or 0.5 mM for 24 hours, NRH 0.1 mM
Procedure: H9C2 cardiomyocytes were differentiated for 6 days and then were treated with hydrogen peroxide (H2O2; at either 0.25 mM or 0.5 mM) for 24 hrs in the presence or absence of NRH (0.1 mM). PBS was used as vehicle for NRH. After 24 hrs, cell viability was evaluated by lumiscence using a commercial kit (Cell Title-Glow; Promega). All results are expressed as meand+/−SEM of n=6 experiments. * indicates P<0.05 vs. the respective vehicle treated group.
H9C2 cardiomyocytes were differentiated for 6 days and then were treated with hydrogen peroxide (H2O2; at either 0.25 mM or 0.5 mM) for 24 hours in the presence or absence of NRH (0.1 mM). PBS was used as vehicle for NRH. After 24 hours, cell viability was evaluated by lumiscence using a commercial kit (Cell Title-Glow; Promega).

T2 sequence (P55264 whole entry): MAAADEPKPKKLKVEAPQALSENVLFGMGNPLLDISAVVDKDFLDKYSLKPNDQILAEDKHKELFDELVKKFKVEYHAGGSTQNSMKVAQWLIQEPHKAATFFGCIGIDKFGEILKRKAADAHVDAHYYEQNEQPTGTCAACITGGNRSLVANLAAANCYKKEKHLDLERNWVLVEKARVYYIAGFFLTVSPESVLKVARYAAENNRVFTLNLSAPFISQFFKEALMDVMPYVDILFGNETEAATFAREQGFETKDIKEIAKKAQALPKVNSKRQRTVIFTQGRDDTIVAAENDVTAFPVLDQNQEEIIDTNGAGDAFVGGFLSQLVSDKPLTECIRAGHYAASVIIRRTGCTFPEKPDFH
T1 sequence (Q99KQ4 whole entry): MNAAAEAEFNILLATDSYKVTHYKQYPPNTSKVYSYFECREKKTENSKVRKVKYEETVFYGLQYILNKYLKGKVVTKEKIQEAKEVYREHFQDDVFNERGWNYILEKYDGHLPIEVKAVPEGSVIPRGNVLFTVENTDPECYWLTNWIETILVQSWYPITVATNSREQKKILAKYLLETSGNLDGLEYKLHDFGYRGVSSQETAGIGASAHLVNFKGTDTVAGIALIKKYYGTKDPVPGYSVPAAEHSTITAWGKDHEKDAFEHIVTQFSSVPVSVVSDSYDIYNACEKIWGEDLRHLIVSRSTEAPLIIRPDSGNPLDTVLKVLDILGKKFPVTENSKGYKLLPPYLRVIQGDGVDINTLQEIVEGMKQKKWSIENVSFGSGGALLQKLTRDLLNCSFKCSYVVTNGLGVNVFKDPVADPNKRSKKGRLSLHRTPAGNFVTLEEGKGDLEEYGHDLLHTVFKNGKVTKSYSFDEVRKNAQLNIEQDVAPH

SMILES: NC(=O)c1ccc[n+]([C@@H]2O[C@H](CO)[C@@H](O)[C@H]2O)c1 [NR, 1-b-D-ribofuranosyl-3-pyridinecarboxamide salt, reference compound]
- NAD+ levels in NRK1KO derived primary hepatocytes (NRK1): failed to increase NAD+ levels
- compound levels in isolated mouse plasma ([1]; spiked, 2 h of incubation): decayed
- generation of NAM in isolated mouse plasma ([1]; spiked, 2 h of incubation): increase in NAM
- degradation to NAM in FBS supplemented media [2]: occurs
- circulating NAM after NR relative to after NRH treatment ([3]; C57BI/6NTac, mouse, in vivo, po, 1 h): ~4 fold
- administered compound in plasma ([3]; mouse, in vivo, po): undetectable
- circulating NAM ([3]; mouse, in vivo, po): large increases
- NAM levels in circulation ([4]; mice, IP 500 mg/kg): highly increased
- NAD+ levels in liver, muscle and kidney ([4]; mice, IP 500 mg/kg): increased

SMILES: NC(=O)C1=CN([C@@H]2O[C@H](CO)[C@@H](O)[C@H]2O)C=CC1 [NRH]
- intracellular NRH and NMNH (AML12 hepatocytes; 5 minutes after treatment): could be detected
- concentration of maximal effects on NAD+ synthesis (AML12 hepatocytes; AML12 hepatocytes): around the millimolar range
- time to significant increase in NAD+ levels after treatment (AML12 hepatocytes; AML12 hepatocytes (FIG. 3)): ≤ 5 min
- NR concentration needed for similar increase in intracellular NAD+, relative to NRH (AML12 hepatocytes; AML12 hepatocytes, NRH at 10 μM): 50 fold
- increase of intracellular NAD+ levels at maximal effect (AML12 hepatocytes; AML12 hepatocytes, around the millimolar range): more than 10 fold
- ability to increase intracellular NAD+ (AML12 hepatocytes; AML12 hepatocytes, compared with NR): superior to that of NR
- concentration at which NAD+ levels were significantly increased (AML12 hepatocytes; AML12 hepatocytes, dose-response (FIG. 2)): 10 µM
- increase in intracellular NR and NMN (AML12 hepatocytes; after NRH treatment, compared with NR treatment): greater than that triggered by NR itself
- NR production on incubation in isolated plasma [1]: did not lead to NR production
- NAD+ synthesis after NRH treatment with gallotannin (NMNAT; NMNAT inhibitor gallotannin, part of action remained at maximal doses (0.5 mM)): largely compromised
- NRH action with gallotannin at submaximal doses (NMNAT; submaximal NRH doses): totally blocked
- capacity as extracellular NAD+ precursor [5]: largely lost its capacity
- NAD+ levels (3T3 fibroblasts): highly elevated
- degradation to NAM in FBS supplemented media [2]: did not degrade to NAM
- dependence of action on NAMPT (NAMPT): NAMPT-independent
- cardiac edema severity (phenotypic scoring) (zebrafish larvae): protects
- NAD+ levels (C2C12 myotubes): highly elevated
- NAD+ levels (INS1-cells): highly elevated
- survival under doxorubicin induced toxicity (zebrafish embryos): rescues
- effect on hepatic NAD+ levels ([3]; mice, oral administration, compared with NR): more potent effect
- NRH concentration in plasma ([3]; mouse, in vivo, po): 11.16 ± 1.74 µM
- administered compound in plasma ([3]; mouse, in vivo, po): detectable
- formation of NR and NMN after NRH treatment with 5-IT (adenosine kinase (AK); 5-IT treatment): prevented the formation of NR and NMN
- action of NRH on NAD+ with 5-iodotubercidin (5-IT) (adenosine kinase (AK); AML12 cells, 5-IT 10 mM for 1 hour prior to NRH, NAD+ 1 hour later): fully ablated
- generation of NMNH, NADH and NAD+ upon inhibition of AK (adenosine kinase (AK); metabolomic analyses): fully blunted
- role of AK in NRH-mediated NAD+ synthesis with ABT-702 (adenosine kinase (AK); second, structurally different AK inhibitor): confirmed
- NAD+ levels in liver, muscle and kidney ([4]; mice, IP 500 mg/kg): increased
- NAM levels in circulation ([4]; mouse, in vivo, ip, 500 mg/kg): only a very mild increase
- NR in circulation after NRH treatment versus after NR injection ([4]; mouse, in vivo, ip, 500 mg/kg): much higher levels
- NRH in circulation ([4]; mouse, in vivo, ip, 500 mg/kg): detectable
- cell viability under oxidative stress (H9C2 cardiomyocytes): protects
